Assay results reported in US10034886B2, “GLP-1 receptor modulators” (Celgene International II SÀRL, priority 2014, dated 2018).
pEC50: −log10 of the molar value.

These compounds were tested against T1, GLP-1R (Homo sapiens, UniProt P43220) (assay: EC20 GLP-1(9-36) PAM cAMP assay: dose response of compound in the presence of fixed concentration of GLP-1(9-36)). Settings: GLP-1R CRE-bla CHO-K1 cells, compound dose response with fixed concentration of GLP-1(9-36), read-out: EC20 GLP-1(9-36) PAM EC50.
T1 construct: host or cells: GLP-1R CRE-bla CHO-K1 cells
T1 sequence (P43220 24-463): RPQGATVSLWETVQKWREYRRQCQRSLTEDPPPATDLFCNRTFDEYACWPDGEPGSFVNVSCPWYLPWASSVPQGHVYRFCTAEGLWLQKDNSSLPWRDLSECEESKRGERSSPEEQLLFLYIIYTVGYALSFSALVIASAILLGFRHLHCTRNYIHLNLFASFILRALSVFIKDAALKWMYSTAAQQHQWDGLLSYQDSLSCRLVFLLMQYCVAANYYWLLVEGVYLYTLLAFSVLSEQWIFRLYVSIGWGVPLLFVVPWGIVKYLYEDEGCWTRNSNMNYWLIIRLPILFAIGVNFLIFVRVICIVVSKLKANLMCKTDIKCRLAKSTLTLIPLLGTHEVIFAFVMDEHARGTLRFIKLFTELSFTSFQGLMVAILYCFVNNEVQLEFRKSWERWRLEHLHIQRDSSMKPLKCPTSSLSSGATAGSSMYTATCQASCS
T1 sequence (P01275 100-127 partner limits assumed): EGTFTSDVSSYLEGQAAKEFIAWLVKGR
Assay type: cell-based
In short: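 GLP-1R CRE-bla CHO-K1 cells treated 30 min at 37 °C with 12-point compound dose response plus fixed EC20 GLP-1(9-36), with IBMX, in HBSS/HEPES/0.1% BSA pH 7.4. Total cAMP measured by luminescent detection against standard curve; EC50 and Emax from non-linear regression.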

| pEC50 | Structure (SMILES) |
| --- | --- |
| 5.00 to 5.30 | COc1cc(/C=C/c2cnc(-c3ccc(C[C@H](NC(=O)c4ccc(C(C)(C)C)s4)C(=O)N[C@H](C)C(=O)O)cc3)nc2)cc(OC)c1 [Compound 1259] |
| > 6.10 | CCC1CCC(C2CCN(c3cnc(-c4ccc(C[C@H](NC(=O)c5ccc(C(C)(C)C)s5)C(=O)N5CC(C(=O)O)C5)cc4)nc3)CC2)CC1 (stereo partly drawn) [Compound 1429] |
| 5.60 to 6.10 | CCCOc1ccc(-c2ccc(-c3cnc(-c4ccc(C[C@H](NC(=O)c5ccc(C(C)(C)C)s5)C(=O)N[C@H](C)C(=O)O)cc4)nc3)cc2)cc1 [Compound 1288] |
| 5.30 to 5.60 | CC(C)(C)c1ccc(C(=O)N[C@@H](Cc2ccc(-c3ncc(-c4ccc(-c5ccc(F)cc5)cc4)cn3)cc2)C(=O)O)s1 [Compound 1354] |
| 5.00 to 5.30 | CCCc1ccc(C2CCN(c3cnc(-c4ccc(C[C@H](NC(=O)c5ccc(C(C)(C)C)s5)C(=O)N5CC(C(=O)O)C5)cc4)nc3)CC2)nn1 [Compound 1501] |
| > 6.10 | CCCc1ccc(C2CCN(c3cnc(-c4ccc(C[C@H](NC(=O)c5ccc(C(C)(C)C)s5)C(=O)N5CC(C(=O)O)C5)cc4)nc3)CC2)cc1 [Compound 1432] |
| > 6.10 | Cc1ccc(C2CCN(c3cnc(-c4ccc(C[C@H](NC(=O)c5ccc(C(C)(C)C)s5)C(=O)N5CC(C(=O)O)C5)cc4)nc3)CC2)cc1 [Compound 1430] |
| 5.60 to 6.10 | C[C@@H](NC(=O)[C@H](Cc1ccc(-c2ncc(/C=C/CCCc3ccccc3)cn2)cc1)NC(=O)c1ccc(C(C)(C)C)s1)C(=O)O [Compound 1247] |
| > 6.10 | CCCc1ccc(-c2ccc(-c3cnc(-c4ccc(C[C@H](NC(=O)c5ccc(C(C)(C)CC)cc5)C(=O)N5CC(C(=O)O)C5)cc4)nc3)c(F)c2)cc1 [Compound 1402] |
| 5.60 to 6.10 | CCCCc1ccc(C2CCN(c3cnc(-c4ccc(C[C@H](NC(=O)c5ccc(C(C)(C)C)s5)C(=O)N5CC(C(=O)O)C5)cc4)nc3)C2)cc1 (stereo partly drawn) [Compound 1505] |
| 5.00 to 5.30 | CCCc1ccc(CC2CN(c3cnc(-c4ccc(CC(NC(=O)c5ccc(C(C)(C)C)s5)C(=O)N5CC(C(=O)O)C5)cc4)nc3)C2)cc1 (stereo not drawn) [Compound 1509] |
| 5.30 to 5.60 | CCCCc1ccc(CC2CN(c3cnc(-c4ccc(CC(NC(=O)c5ccc(C(C)(C)C)s5)C(=O)N5CC(C(=O)O)C5)cc4)nc3)C2)cc1 (stereo not drawn) [Compound 1510] |
| 5.60 to 6.10 | CCCc1ccc(-c2ccc(-c3cnc(-c4ccc(C[C@H](NC(=O)c5ccc(C(C)(C)C)s5)C(=O)O)cc4)nc3)cc2)cc1 [Compound 1393] |
| 5.60 to 6.10 | C[C@@H](NC(=O)[C@H](Cc1ccc(-c2ncc(C#Cc3ccc(F)cc3)cn2)cc1)NC(=O)c1ccc(C(C)(C)C)s1)C(=O)O [Compound 1275] |
| > 6.10 | CCC[C@H]1CC[C@H](C2CCN(c3cnc(-c4ccc(C[C@H](NC(=O)c5ccn(C(C)(C)C)c5)C(=O)N5CC(C(=O)O)C5)cc4)nc3)CC2)CC1 [Compound 1532] |
| 5.60 to 6.10 | CCc1ccc(C(=O)N[C@@H](Cc2ccc(-c3ncc(-c4ccc(OCCCC(C)C)cc4)cn3)cc2)C(=O)N2CC(C(=O)O)C2)cc1 [Compound 1228] |
| > 6.10 | C=C(N[C@H](Cc1ccccc1)C(=O)O)[C@H](Cc1ccc(-c2ncc(N3CCC([C@H]4CC[C@H](CCC)CC4)CC3)cn2)cc1)NC(=O)c1ccc(C(C)(C)C)s1 [Compound 1464] |
| > 6.10 | CC[C@H]1CC[C@H](c2ccc(-c3cnc(-c4ccc(C[C@H](NC(=O)c5cnn(C(C)(C)C)c5)C(=O)O)cc4)nc3)cc2)CC1 [Compound 1378] |
| 5.00 to 5.30 | C[C@@H](NC(=O)[C@H](Cc1ccc(-c2ncc(/C=C/c3cccc(C(F)(F)F)c3)cn2)cc1)NC(=O)c1ccc(C(C)(C)C)s1)C(=O)O [Compound 1251] |
| > 6.10 | C[C@@H](NC(=O)[C@H](Cc1ccc(-c2ncc(-c3ccc(-c4ccc(C(F)(F)F)cc4)cc3)cn2)cc1)NC(=O)c1ccc(C(C)(C)C)s1)C(=O)O [Compound 1313] |

Same assay, conditions: dose response of compound in presence of fixed concentration of GLP-1(9-36), GLP-1R CRE-bla CHO-K1 cells, read-out: EC20 GLP-1(9-36) PAM EC50

| pEC50 | Structure (SMILES) |
| --- | --- |
| 5.60 to 6.10 | CCCCCCCOc1ccc(-c2cnc(-c3ccc(C[C@H](NC(=O)c4ccc(C(C)(C)C)cc4)C(=O)NC(Cc4cccnc4)C(=O)O)cc3)nc2)cc1 (stereo partly drawn) [Compound 541] |
| 5.60 to 6.10 | CCCCCCCOc1ccc(-c2cnc(-c3ccc(C[C@H](NC(=O)c4ccc(C(C)(C)C)cc4)C(=O)N[C@H](CN)C(=O)O)cc3)nc2)cc1 [Compound 465] |
| 5.60 to 6.10 | CCCc1ccc(-c2ccc(-c3cnc(-c4ccc(C[C@H](NC(=O)c5ccc(C(C)(C)C)s5)C(=O)N[C@H](C)C(=O)O)cc4)nc3)cc2)cc1 [Compound 1136] |
| 5.60 to 6.10 | CCCCCCCOc1ccc(-c2cnc(-c3ccc(C[C@H](NC(=O)c4ccc(C(C)(C)C)s4)C(=O)N[C@H](C(=O)O)[C@H](C)CC)cc3)nc2)cc1 [Compound 657] |
| 5.30 to 5.60 | CCCCCCCOc1ccc(-c2cnc(-c3ccc(C[C@H](NC(=O)c4ccc(CCCC)cc4)C(=O)N[C@H](C)C(=O)O)cc3)nc2)cc1 [Compound 819] |
| 5.60 to 6.10 | CCCCCCCOc1ccc(-c2cnc(-c3ccc(C[C@H](NC(=O)c4ccc(C(C)(C)C)cc4)C(=O)NC(C(=O)O)c4nc(C)oc4C)cc3)nc2)cc1 (stereo partly drawn) [Compound 488] |
| > 6.10 | CCCCCCCOc1ccc(-c2cnc(-c3ccc(C[C@H](NC(=O)c4ccc(C(C)(C)C)s4)C(=O)NC(CCS(C)(=O)=O)C(=O)O)cc3)nc2)cc1 (stereo partly drawn) [Compound 597] |
| 5.60 to 6.10 | CCCCCCc1ccc(-c2cnc(-c3ccc(C[C@H](NC(=O)c4ccc(C(C)(C)C)cc4)C(=O)NCCC(=O)O)cc3)nc2)cc1 [Compound 678] |
| > 6.10 | CCCCCCCOc1ccc(-c2cnc(-c3ccc(C[C@H](NC(=O)c4ccc(C(C)(C)C)s4)C(=O)N[C@@H](Cc4cscn4)C(=O)O)cc3)nc2)cc1 [Compound 627] |
| 5.00 to 5.30 | CCCCCCCOc1ccc(-c2cnc(-c3ccc(C[C@H](NC(=O)c4ccc(C(C)(C)C)cc4)C(=O)NC(CC(=O)O)c4cccc(O)c4)cc3)nc2)cc1 (stereo partly drawn) [Compound 538] |
| 5.60 to 6.10 | CCC(C)COc1ccc(-c2cnc(-c3ccc(C[C@H](NC(=O)c4ccc(C(C)(C)C)s4)C(=O)N4CC(C(=O)O)C4)cc3)nc2)cc1 (stereo partly drawn) [Compound 797] |
| 5.60 to 6.10 | CCCCCCCOc1ccc(-c2cnc(-c3ccc(C[C@H](NC(=O)c4ccc(C(C)(C)C)s4)C(=O)N[C@@H](CC(=O)N(C)CCN)C(=O)O)cc3)nc2)cc1 [Compound 519] |
| 5.60 to 6.10 | CCCCCCCOc1ccc(-c2cnc(-c3ccc(C[C@H](NC(=O)c4ccc(C(C)(C)C)s4)C(=O)N[C@@H](Cc4ccc(O)c(O)c4)C(=O)O)cc3)nc2)cc1 [Compound 601] |
| > 6.10 | Cc1ccc(-c2ccc(-c3cnc(-c4ccc(C[C@H](NC(=O)c5ccc(C(C)(C)C)s5)C(=O)N[C@H](C)C(=O)O)cc4)nc3)cc2F)cc1 [Compound 1139] |
| 5.00 to 5.30 | Cc1cccc(Oc2ccc(-c3cnc(-c4ccc(C[C@H](NC(=O)c5ccc(C(C)(C)C)s5)C(=O)N[C@H](C)C(=O)O)cc4)nc3)cn2)c1 [Compound 1016] |
| 5.60 to 6.10 | CCCCCCCOc1ccc(-c2cnc(-c3ccc(C[C@H](NC(=O)c4ccc(C(C)(C)C)s4)C(=O)N[C@@H](CC(=O)O)C(=O)N4CCNCC4)cc3)nc2)cc1 [Compound 534] |
| 5.60 to 6.10 | CCCCCCCOc1ccc(-c2cnc(-c3ccc(C[C@H](NC(=O)c4ccc(C(C)(C)C)cc4)C(=O)N[C@H](C(=O)O)C(C)(C)C)cc3)nc2)cc1 [Compound 546] |
| > 6.10 | CCCCCCCOc1ccc(-c2cnc(-c3ccc(C[C@H](NC(=O)c4ccc(C(C)(C)C)cc4)C(=O)N[C@@H](CO)C(=O)O)cc3)nc2)cc1 [Compound 418] |
| 5.00 to 5.30 | CCCCCCc1noc(-c2ccc(-c3cnc(-c4ccc(C[C@H](NC(=O)c5ccc(C(C)(C)C)cc5)C(=O)NCCC(=O)O)cc4)nc3)cc2)n1 [Compound 756] |
| 5.30 to 5.60 | Cc1ccccc1-c1ccc(-c2cnc(-c3ccc(C[C@H](NC(=O)c4ccc(C(C)(C)C)s4)C(=O)N[C@H](C)C(=O)O)cc3)nc2)cc1 [Compound 1023] |
| 5.60 to 6.10 | CCCCCCCOc1ccc(-c2cnc(-c3ccc(C[C@H](NC(=O)c4ccc(C(C)(C)C)s4)C(=O)NS(N)(=O)=O)cc3)nc2)cc1 [Compound 421] |
| 5.60 to 6.10 | CCCCCCCOc1ccc(-c2cnc(-c3ccc(C[C@H](NC(=O)c4ccc(C(C)(C)C)cc4)C(=O)N[C@@H](CC(=O)O)C(=O)N(C)CCN(C)C)cc3)nc2)cc1 [Compound 505] |
| 5.30 to 5.60 | CCCCCOc1ccc(-c2cnc(-c3ccc(C[C@H](NC(=O)c4ccc(C(C)(C)C)cc4)C(=O)N[C@H](C)C(=O)O)cc3)nc2)cc1 [Compound 718] |
| 5.60 to 6.10 | CCCCCCCOc1ccc(-c2cnc(-c3ccc(C[C@H](NC(=O)c4ccc(C(C)C)s4)C(=O)N[C@H](C)C(=O)O)cc3)nc2)cc1 [Compound 841] |
| 5.00 to 5.30 | CC(C)(C)c1ccc(C(=O)N[C@@H](Cc2ccc(-c3ncc(-c4ccc(OC5CC5)cc4)cn3)cc2)C(=O)NC(C(=O)O)C(O)c2ccccc2)s1 (stereo partly drawn) [Compound 930] |
| 5.00 to 5.30 | CCCCCCCOc1ccc(-c2cnc(-c3ccc(C[C@H](NC(=O)c4ccc(C(C)(C)C)cc4)C(=O)N4CCC[C@@H](C(=O)O)[C@H]4C)cc3)nc2)cc1 [Compound 583] |
| 5.60 to 6.10 | CCCCCCCOc1ccc(-c2cnc(-c3ccc(C[C@H](NC(=O)c4ccc(CCC)s4)C(=O)N4CCC[C@H]4C(=O)O)cc3)nc2)cc1 [Compound 1069] |
| 5.60 to 6.10 | CCCCCCCOc1ccc(-c2cnc(-c3ccc(C[C@H](NC(=O)c4ccc(C(C)(C)C)s4)C(=O)N4CC(CC(=O)O)C4)cc3)nc2)cc1 [Compound 607] |
| > 6.10 | CCCCCCCOc1ccc(-c2cnc(-c3ccc(C[C@H](NC(=O)c4ccc(C(C)(C)C)s4)C(=O)N[C@@H](Cn4cncn4)C(=O)O)cc3)nc2)cc1 [Compound 639] |
| 5.30 to 5.60 | CCCCCCCOc1ccc(-c2cnc(-c3ccc(C[C@H](NC(=O)c4ccc(C(C)(C)C)cc4)C(=O)NCC(C(=O)O)C4CCOCC4)cc3)nc2)cc1 (stereo partly drawn) [Compound 555] |

| Structure (SMILES) | pEC50 |
| --- | --- |
| CCCCCCCOc1ccc(-c2cnc(-c3ccc(C[C@H](NC(=O)c4ccc(C(C)(C)C)s4)C(=O)N[C@@H](CC)C(=O)O)cc3)nc2)cc1 [Compound 401] | > 6.10 |
